Test results published in US8198260B2, “Composition for the prevention and/or treatment of disorders due to abnormal lipid metabolism, comprising propionyl L-carnitine and chitosan” (Sigma-Tau Industrie Farmaceutiche Riunite SpA, priority 1999, dated 2012).

Assays:
[1] = system: male Wistar rats on atherogenic diet; assay: Experimental atherosclerosis tests (atherogenic diet for six weeks); assay type: in vivo; settings: 100 mg/kg of each component
Description: D2 200 mUST/g diet was administered for six weeks consecutively to different groups of male Wistar rats.
While one group of rats served as a control group, the other groups were administered chitosan (100 mg/kg) or propionyl L-carnitine (100 mg/kg) or chitosan (100 mg/kg) plus propionyl L-carnitine (100 mg/kg).
Another group of animals was administered acetyl L-carnitine (100 mg/kg) and butyryl L-carnitine (100 mg/kg) in addition to chitosan and propionyl L-carnitine.

[2] = system: experimentally obese rats; assay: Tests in experimentally obese rats (lipogenic diet for fifteen days); assay type: in vivo, Wistar rats
Description: In these tests, male Wistar rats aged approximately two months were administered a lipogenic diet containing 50% glucose, 20% casein, 4% cellulose, 1% hazel nut oil, 18% starch, 2% vitamin mixture, and 5% salt mixture. The diet was administered for fifteen days consecutively to different groups of rats, one of which served as a control group, whereas the remaining groups were administered daily, per 100 g of diet, 2 g of propionyl L-carnitine or 1 g of chitosan, or the two compounds in combination at the same doses.
Another group was also administered acetyl L-carnitine (2 g/100 g diet) and butyryl L-carnitine (0.5 g/100 g diet) in addition to propionyl L-carnitine and chitosan.
At the end of the fifteenth day since the beginning of the diet, feed consumption and increase in body weight were calculated for each group of rats.

[3] = system: experimentally hypercholesterolaemic rabbits; assay: Tests in experimentally hypercholesterolaemic rabbits (plasma lipoproteins); assay type: in vivo, New Zealand rabbits
Description: Another type of experiment was conducted in New Zealand rabbits kept on a hypercholesterolaemic diet for forty days and treated with alkanoyl L-carnitine, chitosan or with the two types of compounds in combination. In these tests, 0.5% by weight of cholesterol was added to the normal diet of the rabbits consisting of 150 g/day and containing 2% fats, 20% fibres and 11% ashes.
While one group of animals was used as a control group, the remaining groups were treated for six days with propionyl L-carnitine (2 g/100 g diet), chitosan (1 g/100 g diet), or propionyl L-carnitine+acetyl L-carnitine+butyryl L-carnitine (1 g+1 g+1 g/100 g diet) or with chitosan plus propionyl L-carnitine or chitosan plus the alkanoyl carnitine complex at the doses indicated above.
At the end of the fortieth day of treatment blood samples were taken from the ear vein from all animals and the plasma was used to calculate lipoprotein content in the various fractions (VLDL, LDL, HDL) after ultracentrifuging according to the method described by Noble (Noble R. P., J. Lipid Res., 9:693, 1968).

[4] = Day 40 of 0.5% cholesterol diet

CCC(=O)O[C@H](CC(=O)[O-])C[N+](C)(C)C [Propionyl L-carnitine, propionyl L-carnitine]
Protective effect against atherosclerotic lesions induced by the atherogenic diet [1]: substantial protective effect | Mean daily feed consumption (g)/animal, before treatment ([2]; before treatment, lipogenic diet, per 100 g diet: propionyl L-carnitine 2 g, chitosan 1 g, acetyl L-carnitine 2 g, butyryl L-carnitine 0.5 g): 19.8 ± 0.71 g | Mean body growth, final weight increase ([2]; end of fifteenth day of lipogenic diet, same doses in diet): 60.8 ± 5.2 | Mean daily feed consumption (g)/animal, at the end of treatment ([2]; end of fifteenth day, lipogenic diet, per 100 g diet: propionyl L-carnitine 2 g, chitosan 1 g, acetyl L-carnitine 2 g, butyryl L-carnitine 0.5 g): 18.9 ± 0.50 g | Plasma lipoprotein concentration HDL ([3]; Day 0): 24.2 ± 2.4 mg/dL | Plasma lipoprotein concentration LDL ([3]; Day 0): 9.8 ± 1.9 mg/dL | Plasma lipoprotein concentration VLDL ([3]; Day 0): 1.4 ± 0.9 mg/dL | Plasma lipoprotein concentration HDL [3, 4]: 26.5 ± 10.4 mg/dL | Plasma lipoprotein concentration LDL [3, 4]: 322 ± 31.4 mg/dL | Plasma lipoprotein concentration VLDL [3, 4]: 832 ± 105 mg/dL | Increase in VLDL compared with control animals (in words) ([3]; fortieth day, hypercholesterolaemic diet): much less significant
